Target: TetR(B) (Escherichia coli, UniProt P04483)
Experiment: GFP reporter induction in E. coli, Bayesian fit of two-domain thermodynamic model
Type: cell-based
Conditions: 37 °C; LB culture; apparent Kd inferred from in vivo induction curve, K of active LBD set to 1 nM; order-of-magnitude model estimate, not a direct binding measurement; unreliable
Description: GFP reporter induction in E. coli, Bayesian fit of two-domain thermodynamic model on TetR(B) | apparent dissociation constant of WT TetR to ligand is calculated as […]

Sequence of TetR(B) (P04483 whole entry, looked up): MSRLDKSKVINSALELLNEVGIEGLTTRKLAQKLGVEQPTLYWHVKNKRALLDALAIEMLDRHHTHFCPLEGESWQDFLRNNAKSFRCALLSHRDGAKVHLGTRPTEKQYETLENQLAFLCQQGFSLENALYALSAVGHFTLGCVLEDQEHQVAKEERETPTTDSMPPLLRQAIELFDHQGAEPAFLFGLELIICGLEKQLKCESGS

SMILES: Cc1c2c(c(O)c3c(O)cccc13)C(=O)[C@]1(O)C(=O)C(C(N)=O)=C(O)[C@@H](N(C)C)[C@@H]1C2 [anhydrotetracycline]
- K apparent WT: 27.1 nM

From PMC11152574, “A parameterized two-domain thermodynamic model explains diverse mutational effects on protein allostery” (eLife, 2024)
